From ChEMBL document CHEMBL3739373, “1,2,3-Triazole derivatives as antitubercular agents: synthesis, biological evaluation and molecular docking study” (Medchemcomm, 2015)
Values after ≈ are worked out from the molar mass of the structure shown.

Columns and labels:
[1] = Selectivity index, ratio of GI50 for human THP1 cells to MIC for dormant phase Mycobacterium tuberculosis H37Ra ATCC 25177; type: toxicity, cell-based, THP-1; settings: read-out: Selectivity Index
[2] = Antioxidant activity assessed as DPPH radical scavenging activity after 30 mins by spectrophotometric analysis; type: physicochemical
[3] = Selectivity index, ratio of GI50 for human A549 cells to MIC for dormant phase Mycobacterium tuberculosis H37Ra ATCC 25177; type: toxicity, cell-based; settings: read-out: Selectivity Index
[4] = Cytotoxicity against human THP1 cells assessed as growth inhibition after 48 hrs by MTT assay; type: cell-based, THP-1; settings: for GI50 at 48 h: THP1 cells; for GI90: thp-1, 48 h
[5] = Cytotoxicity against human PANC1 cells assessed as growth inhibition after 48 hrs by MTT assay; type: cell-based, PANC-1; settings: for GI50 at 48 h: PANC1 cells; for GI90: panc-1, 48 h
[6] = Selectivity index, ratio of GI50 for human PANC1 cells to MIC for dormant phase Mycobacterium tuberculosis H37Ra ATCC 25177; type: toxicity, cell-based, PANC-1; settings: read-out: Selectivity Index
[7] = system: Mycobacterium tuberculosis; experiment: Antitubercular activity against dormant phase Mycobacterium tuberculosis H37Ra ATCC 25177 incubated for 12 days by XTT reduction menadione assay; type: functional, organism-based; settings: 288 h
A549 = experiment: (§1) Cytotoxicity against human A549 cells assessed as growth inhibition after 48 hrs by MTT assay; type: cell-based; settings: a549, 48 h
[8] = as §1; type: cell-based; settings: A549 cells

## Cc1ccc(OCc2cn(Cc3cccc(Cl)c3)nn2)cc1
[1]
  selectivity ratio: 1.3
[2]
  IC50: 16.3 µg/mL (≈ 51.9 µM)
[3]
  selectivity ratio: > 3.5
[4]
  GI50 at 48 h: 36.7 µg/mL (≈ 117 µM)
  GI90: 93.1 µg/mL (≈ 297 µM)
[5]
  GI50 at 48 h: > 100 µg/mL
  GI90: > 100 µg/mL
[6]
  selectivity ratio: > 3.5
[7]
  IC50: 3 µg/mL (≈ 9.56 µM)
  MIC: 28.9 µg/mL (≈ 92.1 µM)
A549
  GI90: > 100 µg/mL
[8]
  GI50 at 48 h: > 100 µg/mL

## O=[N+]([O-])c1ccc(Cn2cc(COc3ccccc3)nn2)cc1
[1]
  selectivity ratio: 2.2
[2]
  IC50: 10.1 µg/mL (≈ 32.5 µM)
[3]
  selectivity ratio: > 3.6
[4]
  GI50 at 48 h: 62.9 µg/mL (≈ 203 µM)
  GI90: > 100 µg/mL
[5]
  GI50 at 48 h: > 100 µg/mL
  GI90: > 100 µg/mL
[6]
  selectivity ratio: > 3.6
[7]
  IC50: 1.7 µg/mL (≈ 5.48 µM)
  MIC: 28 µg/mL (≈ 90.2 µM)
A549
  GI90: > 100 µg/mL
[8]
  GI50 at 48 h: > 100 µg/mL

## Cc1cc(OCc2cn(Cc3ccc(Br)cc3)nn2)ccc1Cl
[2]
  IC50: 16.5 µg/mL (≈ 42 µM)
[7]
  IC50: 2.4 µg/mL (≈ 6.11 µM)
  MIC: > 30 µg/mL

## Clc1ccc(Cn2cc(COc3ccccc3)nn2)cc1
[1]
  selectivity ratio: 1.2
[2]
  IC50: 26.1 µg/mL (≈ 87.1 µM)
[3]
  selectivity ratio: > 3.3
[4]
  GI50 at 48 h: 36.4 µg/mL (≈ 121 µM)
  GI90: > 100 µg/mL
[5]
  GI50 at 48 h: > 100 µg/mL
  GI90: > 100 µg/mL
[6]
  selectivity ratio: > 3.3
[7]
  IC50: 3.5 µg/mL (≈ 11.7 µM)
  MIC: 29.9 µg/mL (≈ 99.7 µM)
A549
  GI90: > 100 µg/mL
[8]
  GI50 at 48 h: > 100 µg/mL

## O=[N+]([O-])c1ccc(Cn2cc(COc3cccc([N+](=O)[O-])c3)nn2)cc1
[2]
  IC50: 17.1 µg/mL (≈ 48.1 µM)
[7]
  IC50: > 100 µg/mL
  MIC: > 100 µg/mL

## O=[N+]([O-])c1cccc(Cn2cc(COc3cccc([N+](=O)[O-])c3)nn2)c1
[2]
  IC50: 19.1 µg/mL (≈ 53.8 µM)
[7]
  IC50: 8.3 µg/mL (≈ 23.4 µM)
  MIC: > 30 µg/mL

## O=[N+]([O-])c1ccc(Cn2cc(COc3c(Cl)cc(Cl)cc3Cl)nn2)cc1
[2]
  IC50: 28.9 µg/mL (≈ 69.9 µM)
[7]
  IC50: 2.2 µg/mL (≈ 5.32 µM)
  MIC: > 30 µg/mL

## CO[C@H]1/C=C/O[C@@]2(C)Oc3c(C)c(O)c4c(O)c(c(/C=N/N5CCN(C)CC5)c(O)c4c3C2=O)NC(=O)/C(C)=C\C=C\[C@H](C)[C@H](O)[C@@H](C)[C@@H](O)[C@@H](C)[C@H](OC(C)=O)[C@@H]1C [RIFAMPIN]
[7]
  IC50: 0.002 µg/mL (≈ 0.00243 µM)
  MIC: 0.04 µg/mL (≈ 0.0486 µM)

## Cc1cc(OCc2cn(Cc3ccc([N+](=O)[O-])cc3)nn2)ccc1Cl
[1]
  selectivity ratio: 1
[2]
  IC50: 13.4 µg/mL (≈ 37.3 µM)
[3]
  selectivity ratio: > 3.6
[4]
  GI50 at 48 h: 27.9 µg/mL (≈ 77.8 µM)
  GI90: 84.3 µg/mL (≈ 235 µM)
[5]
  GI50 at 48 h: > 100 µg/mL
  GI90: > 100 µg/mL
[6]
  selectivity ratio: > 3.6
[7]
  IC50: 0.8 µg/mL (≈ 2.23 µM)
  MIC: 28.2 µg/mL (≈ 78.6 µM)
A549
  GI90: > 100 µg/mL
[8]
  GI50 at 48 h: > 100 µg/mL

## Clc1cccc(Cn2cc(COc3c(Cl)cc(Cl)cc3Cl)nn2)c1
[2]
  IC50: 16.4 µg/mL (≈ 40.7 µM)
[7]
  IC50: 2.2 µg/mL (≈ 5.46 µM)
  MIC: > 30 µg/mL

## Cc1ccc(OCc2cn(Cc3ccc(Cl)cc3)nn2)cc1
[1]
  selectivity ratio: 3.1
[2]
  IC50: 17.3 µg/mL (≈ 55.1 µM)
[3]
  selectivity ratio: > 4.1
[4]
  GI50 at 48 h: 74.1 µg/mL (≈ 236 µM)
  GI90: > 100 µg/mL
[5]
  GI50 at 48 h: > 100 µg/mL
  GI90: > 100 µg/mL
[6]
  selectivity ratio: > 4.1
[7]
  IC50: 2.5 µg/mL (≈ 7.97 µM)
  MIC: 24.2 µg/mL (≈ 77.1 µM)
A549
  GI90: > 100 µg/mL
[8]
  GI50 at 48 h: > 100 µg/mL

## Cc1cc(OCc2cn(Cc3ccc(Cl)cc3)nn2)ccc1Cl
[1]
  selectivity ratio: 1.2
[2]
  IC50: 11.4 µg/mL (≈ 32.7 µM)
[3]
  selectivity ratio: > 3.7
[4]
  GI50 at 48 h: 31.2 µg/mL (≈ 89.6 µM)
  GI90: 88.1 µg/mL (≈ 253 µM)
[5]
  GI50 at 48 h: > 100 µg/mL
  GI90: > 100 µg/mL
[6]
  selectivity ratio: > 3.7
[7]
  IC50: 0.2 µg/mL (≈ 0.574 µM)
  MIC: 26.9 µg/mL (≈ 77.2 µM)
A549
  GI90: > 100 µg/mL
[8]
  GI50 at 48 h: > 100 µg/mL

## Cc1cc(OCc2cn(Cc3cccc([N+](=O)[O-])c3)nn2)ccc1Cl
[2]
  IC50: 15.6 µg/mL (≈ 43.5 µM)
[7]
  IC50: 2.2 µg/mL (≈ 6.13 µM)
  MIC: > 30 µg/mL

## Clc1cccc(Cn2cc(COc3ccccc3)nn2)c1
[1]
  selectivity ratio: 0.5
[2]
  IC50: 27.3 µg/mL (≈ 91.1 µM)
[3]
  selectivity ratio: > 3.6
[4]
  GI50 at 48 h: 14.6 µg/mL (≈ 48.7 µM)
  GI90: 54.3 µg/mL (≈ 181 µM)
[5]
  GI50 at 48 h: > 100 µg/mL
  GI90: > 100 µg/mL
[6]
  selectivity ratio: > 3.6
[7]
  IC50: 2.4 µg/mL (≈ 8.01 µM)
  MIC: 27.7 µg/mL (≈ 92.4 µM)
A549
  GI90: > 100 µg/mL
[8]
  GI50 at 48 h: > 100 µg/mL

## O=[N+]([O-])c1cccc(OCc2cn(Cc3cccc(Cl)c3)nn2)c1
[2]
  IC50: 31.2 µg/mL (≈ 90.5 µM)
[7]
  IC50: 26.6 µg/mL (≈ 77.2 µM)
  MIC: > 100 µg/mL

## Cc1ccc(OCc2cn(Cc3ccc(Br)cc3)nn2)cc1
[2]
  IC50: 16.3 µg/mL (≈ 45.5 µM)
[7]
  IC50: 7.8 µg/mL (≈ 21.8 µM)
  MIC: > 30 µg/mL

## O=C1O[C@H]([C@@H](O)CO)C(O)=C1O [ASCORBIC ACID]
[2]
  IC50: 12.7 µg/mL (≈ 72.1 µM)
